Laboratory results from patent publication US20240060999A1, “BLOOD COAGULATION INSPECTION METHOD” (FUJIMORI KOGYO CO., LTD, priority 2020, published 2024).

Tested on: whole blood
Assay: ROTEM whole blood coagulation with rabbit brain-derived tissue thromboplastin (TP) + Ca 12 mM (CTI 20 μg/mL, PKSI-527 40 μM where stated)
Assay type: cell-based
Conditions: for prolongation of blood clotting time with rTM by addition of heparan sulfate: reagents (1)-(4), all conditions, heparan sulfate 1 μg/mL
[1] = Ex15, TP 0.033 μg/mL+Ca+CTI+PKSI-527, heparan sulfate 0.3 μg/mL, no rTM
[2] = Ex15, TP 0.033 μg/mL+Ca+CTI+PKSI-527, heparan sulfate 0.3 μg/mL, rTM 5 nM
[3] = Ex15, TP 0.033 μg/mL+Ca+CTI+PKSI-527, heparan sulfate 0.4 μg/mL, no rTM
[4] = Ex15, TP 0.033 μg/mL+Ca+CTI+PKSI-527, heparan sulfate 0.4 μg/mL, rTM 5 nM
[5] = Ex15, TP 0.033 μg/mL+Ca+CTI+PKSI-527, heparan sulfate 0.5 μg/mL, no rTM
[6] = Ex15, TP 0.033 μg/mL+Ca+CTI+PKSI-527, heparan sulfate 0.5 μg/mL, rTM 5 nM
[7] = Ex17, TP 0.011 μg/mL+Ca+CTI+PKSI-527, heparan sulfate 0.2 μg/mL, no rTM
[8] = Ex17, TP 0.011 μg/mL+Ca+CTI+PKSI-527, heparan sulfate 0.2 μg/mL, rTM 10 nM
[9] = Ex17, TP 0.011 μg/mL+Ca+CTI+PKSI-527, heparan sulfate 0.3 μg/mL, no rTM
[10] = Ex17, TP 0.011 μg/mL+Ca+CTI+PKSI-527, heparan sulfate 0.3 μg/mL, rTM 10 nM
[11] = Ex17, TP 0.011 μg/mL+Ca+CTI+PKSI-527, heparan sulfate 0.5 μg/mL, no rTM
[12] = Ex17, TP 0.011 μg/mL+Ca+CTI+PKSI-527, heparan sulfate 0.5 μg/mL, rTM 10 nM
[13] = Ex18, TP 0.0166 μg/mL+Ca+CTI+PKSI-527, heparan sulfate 0.3 μg/mL, no rTM
[14] = Ex18, TP 0.0166 μg/mL+Ca+CTI+PKSI-527, heparan sulfate 0.3 μg/mL, rTM 10 nM
[15] = Ex18, TP 0.0166 μg/mL+Ca+CTI+PKSI-527, heparan sulfate 0.5 μg/mL, no rTM
[16] = Ex18, TP 0.0166 μg/mL+Ca+CTI+PKSI-527, heparan sulfate 0.5 μg/mL, rTM 10 nM
[17] = Ex18, TP 0.0166 μg/mL+Ca+CTI+PKSI-527, heparan sulfate 1.0 μg/mL, no rTM
[18] = Ex18, TP 0.0166 μg/mL+Ca+CTI+PKSI-527, heparan sulfate 1.0 μg/mL, rTM 10 nM

With Heparan sulfate the “CT (clotting time)” value (Ex15, TP 0.033 μg/mL+Ca+CTI+PKSI-527, heparan sulfate 0.2 μg/mL, rTM 5 nM) was 749 s, the “CFT (clot formation time)” value [1] was 171 s and the “CT (clotting time)” value [1] was 688 s. For the same substance, the “CFT (clot formation time)” value [2] was 251 s, the “CT (clotting time)” value [2] was 825 s and the “CFT (clot formation time)” value [3] was 206 s. For the same substance, the “CT (clotting time)” value [3] was 762 s, the “CFT (clot formation time)” value [4] was 334 s and the “CT (clotting time)” value [4] was 955 s. The “CFT (clot formation time)” value [5] was 248 s, the “CT (clotting time)” value [5] was 837 s and the “CFT (clot formation time)” value [6] was 407 s. The “CT (clotting time)” value [6] was 995 s, the blood clotting time (Ex17, TP 0.011 μg/mL+Ca+CTI+PKSI-527, heparan sulfate 0.2 μg/mL or more, rTM 10 nM) was at least 1 h and the “CFT (clot formation time)” value [7] was 578 s. For the same substance, the “CT (clotting time)” value [7] was 1408 s, the “CFT (clot formation time)” value [8] was “No CFT” and the “CT (clotting time)” value [8] was “No CT”. For the same substance, the “CFT (clot formation time)” value [9] was 430 s, the “CT (clotting time)” value [9] was 1630 s and the “CFT (clot formation time)” value [10] was “No CFT”. The “CT (clotting time)” value [10] was “No CT”, the “CFT (clot formation time)” value [11] was 386 s and the “CT (clotting time)” value [11] was 1178 s. The “CFT (clot formation time)” value [12] was “No CFT”, the “CT (clotting time)” value [12] was “No CT” and the “CFT (clot formation time)” value [13] was 256 s. The “CT (clotting time)” value [13] was 1035 s, the “CFT (clot formation time)” value [14] was 292.0 s and the “CT (clotting time)” value [14] was 904 s. The “CFT (clot formation time)” value [15] was 407 s, the “CT (clotting time)” value [15] was 1162 s and the “CFT (clot formation time)” value [16] was 742.0 s. The “CT (clotting time)” value [16] was 1064 s, the “CFT (clot formation time)” value [17] was “No CT” and the “CT (clotting time)” value [17] was 1999 s. The “CFT (clot formation time)” value [18] was “No CFT”, the “CT (clotting time)” value [18] was “No CT” and the blood clotting time [18] was at least 1 h. The “CT (clotting time)” value (Ex30, reagent (1): TP 0.664 μg/mL+heparan sulfate 1 μg/mL+Ca, no rTM) was 220 s, the “CT (clotting time)” value (Ex30, reagent (1): TP 0.664 μg/mL+heparan sulfate 1 μg/mL+Ca, rTM 25 nM) was 533 s and the “CT (clotting time)” value (Ex30, reagent (1): TP 0.664 μg/mL+heparan sulfate 1 μg/mL+Ca, rTM 25 nM+APC inhibitory aptamer 1 μM) was 260 s. The “CT (clotting time)” value (Ex30, reagent (2): TP 0.664 μg/mL+heparan sulfate 1 μg/mL+Ca+CTI, no rTM) was 214 s, the “CT (clotting time)” value (Ex30, reagent (2): TP 0.664 μg/mL+heparan sulfate 1 μg/mL+Ca+CTI, rTM 25 nM) was 448 s and the “CT (clotting time)” value (Ex30, reagent (2): TP 0.664 μg/mL+heparan sulfate 1 μg/mL+Ca+CTI, rTM 25 nM+APC inhibitory aptamer 1 μM) was 287 s. For the same substance, the “CT (clotting time)” value (Ex30, reagent (3): TP 0.664 μg/mL+heparan sulfate 1 μg/mL+Ca+PKSI-527, no rTM) was 220 s, the “CT (clotting time)” value (Ex30, reagent (3): TP 0.664 μg/mL+heparan sulfate 1 μg/mL+Ca+PKSI-527, rTM 25 nM) was 444 s and the “CT (clotting time)” value (Ex30, reagent (3): TP 0.664 μg/mL+heparan sulfate 1 μg/mL+Ca+PKSI-527, rTM 25 nM+APC inhibitory aptamer 1 μM) was 291 s. The “CT (clotting time)” value (Ex30, reagent (4): TP 0.664 μg/mL+heparan sulfate 1 μg/mL+Ca+CTI+PKSI-527, no rTM) was 226 s, the “CT (clotting time)” value (Ex30, reagent (4): TP 0.664 μg/mL+heparan sulfate 1 μg/mL+Ca+CTI+PKSI-527, rTM 25 nM) was 440 s and the “CT (clotting time)” value (Ex30, reagent (4): TP 0.664 μg/mL+heparan sulfate 1 μg/mL+Ca+CTI+PKSI-527, rTM 25 nM+APC inhibitory aptamer 1 μM) was 319 s. The “prolongation of blood clotting time with rTM by addition of heparan sulfate” value (Ex30, rTM 25 nM) was “markedly prolonged”, the “CT (clotting time)” value (Ex31, reagent (1): TP 0.664 μg/mL+heparan sulfate 1 μg/mL+Ca, no rTM) was 220 s and the “CT (clotting time)” value (Ex31, reagent (1): TP 0.664 μg/mL+heparan sulfate 1 μg/mL+Ca, rTM 30 nM) was 766 s. For the same substance, the “CT (clotting time)” value (Ex31, reagent (1): TP 0.664 μg/mL+heparan sulfate 1 μg/mL+Ca, rTM 30 nM+APC inhibitory aptamer 1 μM) was 301 s, the “CT (clotting time)” value (Ex31, reagent (2): TP 0.664 μg/mL+heparan sulfate 1 μg/mL+Ca+CTI, no rTM) was 214 s and the “CT (clotting time)” value (Ex31, reagent (2): TP 0.664 μg/mL+heparan sulfate 1 μg/mL+Ca+CTI, rTM 30 nM) was 613 s. For the same substance, the “CT (clotting time)” value (Ex31, reagent (2): TP 0.664 μg/mL+heparan sulfate 1 μg/mL+Ca+CTI, rTM 30 nM+APC inhibitory aptamer 1 μM) was 286 s, the “CT (clotting time)” value (Ex31, reagent (3): TP 0.664 μg/mL+heparan sulfate 1 μg/mL+Ca+PKSI-527, no rTM) was 220 s and the “CT (clotting time)” value (Ex31, reagent (3): TP 0.664 μg/mL+heparan sulfate 1 μg/mL+Ca+PKSI-527, rTM 30 nM) was 517 s. The “CT (clotting time)” value (Ex31, reagent (3): TP 0.664 μg/mL+heparan sulfate 1 μg/mL+Ca+PKSI-527, rTM 30 nM+APC inhibitory aptamer 1 μM) was 297 s, the “CT (clotting time)” value (Ex31, reagent (4): TP 0.664 μg/mL+heparan sulfate 1 μg/mL+Ca+CTI+PKSI-527, no rTM) was 226 s and the “CT (clotting time)” value (Ex31, reagent (4): TP 0.664 μg/mL+heparan sulfate 1 μg/mL+Ca+CTI+PKSI-527, rTM 30 nM) was 557 s. For the same substance, the “CT (clotting time)” value (Ex31, reagent (4): TP 0.664 μg/mL+heparan sulfate 1 μg/mL+Ca+CTI+PKSI-527, rTM 30 nM+APC inhibitory aptamer 1 μM) was 307 s and the “prolongation of blood clotting time with rTM by addition of heparan sulfate” value (Ex31, rTM 30 nM) was “markedly prolonged”.
